This is an account of results in patent US12304912B2, “Fused bicyclic RAF inhibitors and methods for use thereof” (Jazz Pharmaceuticals Ireland Limited, priority 2020, dated 2025).

Series [1] can be described thus: Microsomal stability assay, human liver microsomes (HLM). Type of series: in vitro ADME. Particulars: 0.5 mg/mL protein, 1 μM substrate. The gist of the method: (§1)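 Substrate depletion: 1 μM compound incubated at 37° C. with cryopreserved mouse or human liver microsomes at 0.5 mg·mL^−1 protein. Timed aliquots quenched in ice-cold organic solvent and measured by LC-MS/MS; t1/2 and CLint derived from the slope of ln % remaining versus time.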
A general note: Liver microsomes are vesicles of endoplasmic reticulum, rich in cytochrome P450 enzymes.

Series [2] can be described thus: Plasma protein binding assay, mouse plasma (mPPB). It is filed as in vitro ADME. Particulars: 5 μM, equilibrium dialysis 4 hours 37° C. The gist of the method:
(§2)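 Equilibrium dialysis of 5 μM compound in previously frozen human or mouse plasma against phosphate buffer, 4 h at 37 °C. Both chambers quantified by LC-MS/MS; % free = (1−((PC−PF)/PC))×100.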

Series [3] is described as follows: Microsomal stability assay, mouse liver microsomes (MLM). It is filed as in vitro ADME. To be noted: 0.5 mg/mL protein, 1 μM substrate. Put shortly:
as §1

Series [4] is described as follows: Plasma protein binding assay, human plasma (hPPB). It is filed as in vitro ADME. To be noted: 5 μM, equilibrium dialysis 4 hours 37° C. The gist of the method: as §2
A general note: In equilibrium dialysis only unbound substance equilibrates across the membrane.

In series [5] the test system is RAF dimers in HCT-116 cells. Description: HCT-116 AlphaLISA SureFire pERK1/2 cellular assay (dimer). It is filed as cell-based. To be noted: Homo sapiens, HCT-116; HCT116 cells pre-dosed with 1 μM Encorafenib, 1 hr; read-out: pERK HCT116 dimer (1 hr) pIC50 (converted). How it is done: (§3) The human HCT-116 colorectal carcinoma cell line (ATCC CCL-247) endogenously expresses the KRAS^G13D mutation, which leads to constitutive activation of the MAP kinase pathway and phosphorylation of ERK. […] Assay read outs took place 2 or 24 hours after dosing with compounds. On the first day, HCT-116 cells were harvested, resuspended in growth medium (McCoys5A with Glutamax (Life Technologies 36600021) and 10% heat-inactivated fetal bovine serum (Sigma F9665)), and counted. Cells were plated in 100 μl per well in each well of a 96-well culture dish (Sigma CLS3598) to a final density of 30,000 (2 hr read) or 15,000 (24 hr read) cells per well and incubated over night at 37° C. and 5% CO2. On day 2, the growth medium was exchanged for dosing medium (McCoys5A with Glutamax (Life Technologies 36600021) and 1% heat-inactivated fetal bovine serum (Sigma F9665)) and the cells were dosed with compounds to produce a 10-point dose response, where the top concentration was 1 μM and subsequent concentrations were at 1/3 log dilution intervals. A matched DMSO control was included. The cells were subsequently incubated for either 2 or 24 hours at 37° C. and 5% CO2. After incubation, media was removed and the cells were incubated with lysis buffer containing phosphatase inhibitors for 15 minutes at room temperature. Cell lysates were transferred to a 12 area 96 well white Optiplate™ (Perkin Elmer 6005569) and incubated with anti-mouse IgG acceptor beads, a biotinylated anti-ERK1/2 rabbit antibody recognizing both phosphorylated and non-phosphorylated ERK1/2, a mouse antibody targeted to the Thr202/Tyr204 epitope and recognizing phosphorylated ERK proteins only, and streptavidin-coated donor beads. The biotinylated antibody binds to the streptavidin-coated donor beads and the phopsho-ERK1/2 antibody binds to the acceptor beads. Plates were read on an EnVision reader (Perkin Elmer) and excitation of the beads at 680 nm with a laser induced the release of singlet oxygen molecules from the donor beads that trigger energy transfer to the acceptor beads in close proximity, producing a signal that can be measured at […]. Both antibodies bound to phosphorylated ERK proteins, bringing the donor and acceptor beads into close proximity. All data were analyzed using the Dotmatics or GraphPad Prism software packages. Inhibition of ERK phosphorylation was assessed by determination of the absolute IC50 value, which is defined as the concentration of compound required to decrease the level of phosphorylated ERK proteins by 50% when compared to DMSO control.
HCT-116 AlphaLISA SureFire pERK1/2 Cellular Assay (Dimer)
The human HCT-116 colorectal carcinoma cell line (ATCC CCL-247) endogenously expresses the KRAS^G13D mutation, which leads to constitutive activation of the MAP kinase pathway and phosphorylation of ERK. First generation RAF inhibitors can promote RAF dimer formation in KRAS mutant tumours leading to a paradoxical activation of the pathway. To determine whether compounds can circumvent this problem and inhibit RAF dimers in HCT-116 cells, they were tested using AlphaLISA® SureFire® technology (Perkin Elmer p-ERK1/2 p-T202/Y204 assay kit ALSU-PERK-A10K). The main procedure is essentially the same as described above, with the following adjustments: Cells were seeded with the seeding density of 30,000 cells per well. On the second day (the day of dosing) no medium change was performed and the cells were dosed with 1 μM of Encorafenib for 1 hour (at 37° C. and 5% CO2) to induce RAF dimers and promote paradoxical dimer-dependent pERK signalling. After incubation, the cells were washed, 100 μl fresh growth medium was added, and cells were dosed with compounds of interest to produce a 10-point dose response, where the top concentration was 10 μM and subsequent concentrations are at 1/2 log dilution intervals. Cells were incubated for another hour at 37° C. and 5% CO2 before lysis and processing with the pERK AlphaLISA® SureFire® kit as described above. […]

The subject of series [6] is BRAF monomers in A375 cells. Description: A375 AlphaLISA SureFire pERK1/2 cellular assay (monomer). Type of series: cell-based. To be noted: Homo sapiens, A-375; A375 cells, 1 hr; read-out: pERK A375 (1 hr) pIC50 (converted). How it is done: as §3
A375 AlphaLISA SureFire pERK1/2 Cellular Assay (Monomer)
The human A375 melanoma cell line (ATCC CRL-1619) endogenously expresses the BRAF^V600E mutation, which leads to constitutive activation of the MAP kinase pathway and phosphorylation of ERK. In BRAF^V600E mutant tumours, BRAF signals as a monomer to activate ERK. To determine whether compounds can inhibit BRAF monomers in A375 cells, they were tested using AlphaLISA® SureFire® technology (Perkin Elmer p-ERK1/2 p-T202/Y204 assay kit ALSU-PERK-A10K). The main procedure is essentially the same as described above for HCT-116 cells, with the following adjustments: The A375 cells were cultivated and dosed in Dulbecco's modified Eagle's medium containing 4.5 g/L D-glucose (Sigma D6546), 10% heat-inactivated fetal bovine serum (Sigma F9665), and 1% Sodium-Pyruvate (Sigma S8636), and seeded with a seeding density of 30,000 cells per well. No media exchange was performed before dosing with compounds to produce a 10-point dose response, where the top concentration was 10 μM and subsequent concentrations were at 1/2 log dilution intervals. Subsequently, the cells were incubated for 1 hour at 37° C. and 5% CO2 before lysis.

Series [7] is described as follows: Solubility (Sol), medium not stated. Particulars: cells not marked (FESSIF). It is filed as physicochemical.

The microsomal CLint is the capacity of the preparation to metabolise the compound, expressed as a volume cleared per time.

Structures are written as SMILES.

Turning to `Cc1ccccc1-c1c[nH]c(C2COc3ccc(Oc4ccnc5c4CCC(=O)N5)cc3C2)n1` (stereo not shown) [Compound 2, 5-[3-[4-(o-tolyl)-1H-imidazol-2-yl]chroman-6-yl]oxy-3,4-dihydro-1H-1,8-naphthyridin-2-one], the intrinsic metabolic clearance (microsomal CLint) at 1 μM was 147 µL/min/mg in series [1] and 85.8 µL/min/mg in series [3]. The “mPPB (% free)” value in series [2] is 1 % free. Moreover, the “hPPB (% free)” value in series [4] is 0.3 % free. Moreover, the values for the IC50 in series [5] and in series [6] were 58.9 nM and 12.6 nM, respectively. For the same molecule, the Sol in series [7] is listed as <1.1 mg/L.
As to `O=C1CCc2c(Oc3ccc4c(c3)CC(c3nc(-c5ccccc5C(F)(F)F)c[nH]3)CO4)ccnc2N1` (stereo not shown) [Compound 4, 5-[3-[4-[2-(trifluoromethyl)phenyl]-1H-imidazol-2-yl]chroman-6-yl]oxy-3,4-dihydro-1H-1,8-naphthyridin-2-one], the microsomal CLint at 1 μM in series [1] was 261 µL/min/mg; in series [3], 121 µL/min/mg. Besides, the “mPPB (% free)” value in series [2] was determined as 0.5 % free. Also, in series [4], the “hPPB (% free)” value is <0.1 % free. In addition, the IC50 in series [5] is 269 nM; in series [6], 97.7 nM. Also, the Sol in series [7] is <1.3 mg/L.
Take `O=C1CCc2c(Oc3ccc4c(c3)CC(c3nc(-c5cc(F)ccc5F)c[nH]3)CO4)ccnc2N1` (stereo not shown) [Compound 5, 5-[3-[4-(2,5-difluorophenyl)-1H-imidazol-2-yl]chroman-6-yl]oxy-3,4-dihydro-1H-1,8-naphthyridin-2-one]: the intrinsic clearance (microsomal CLint) at 1 μM in series [1] amounted to 33.9 µL/min/mg; in series [3], 28.5 µL/min/mg. Moreover, the “mPPB (% free)” value in series [2] is 0.4 % free. Further, in series [4], the “hPPB (% free)” value is listed as 0.3 % free. Also, the IC50 was 191 nM in series [5] and 186 nM in series [6]. For the same molecule, in series [7], the Sol was <1.2 mg/L.
With `CC(C)NCc1cc(-c2c[nH]c(C3COc4ccc(Oc5ccnc6c5CCC(=O)N6)cc4C3)n2)cc(C(F)(F)F)c1` (stereo not shown) [Compound 6, 5-[3-[4-[3-[(isopropylamino)methyl]-5-(trifluoromethyl)phenyl]-1H-imidazol-2-yl]chroman-6-yl]oxy-3,4-dihydro-1H-1,8-naphthyridin-2-one], the microsomal CLint at 1 μM in series [1] came to 33.4 µL/min/mg; in series [3] it was 18.1 µL/min/mg. The “mPPB (% free)” value in series [2] is recorded as 1.3 % free. For the same molecule, the “hPPB (% free)” value in series [4] is recorded as 2.4 % free. In addition, the IC50 is 447 nM in series [5] and 977 nM in series [6]. In series [7], the Sol is <1.4 mg/L.
Turning to `CN(C)Cc1cc(-c2c[nH]c(C3COc4ccc(Oc5ccnc6c5CCC(=O)N6)cc4C3)n2)cc(C(F)(F)F)c1` (stereo not shown) [Compound 7, 5-[3-[4-[3-[(dimethylamino)methyl]-5-(trifluoromethyl)phenyl]-1H-imidazol-2-yl]chroman-6-yl]oxy-3,4-dihydro-1H-1,8-naphthyridin-2-one], the microsomal CLint at 1 μM in series [1] was 67.9 µL/min/mg; in series [3] it was 39.2 µL/min/mg. Moreover, the “mPPB (% free)” value in series [2] is recorded as 0.9 % free. Also, the “hPPB (% free)” value in series [4] was found to be 1.9 % free. Besides, the IC50 in series [5] was 191 nM; in series [6], 692 nM. The Sol in series [7] is given as <1.4 mg/L.
`Cc1ccc(-c2c[nH]c(C3COc4ccc(Oc5ccnc6c5CCC(=O)N6)cc4C3)n2)cc1` (stereo not shown) [Compound 9, 5-[3-[4-(p-tolyl)-1H-imidazol-2-yl]chroman-6-yl]oxy-3,4-dihydro-1H-1,8-naphthyridin-2-one]: the microsomal CLint at 1 μM was determined as 70.5 µL/min/mg in series [1] and 6.1 µL/min/mg in series [3]. The “mPPB (% free)” value in series [2] was 0.4 % free. Also, in series [4], the “hPPB (% free)” value is given as 0.6 % free. Further, the values for the IC50 in series [5] and in series [6] were 186 nM and 331 nM, respectively. In series [7], the Sol is <1.1 mg/L.
On to `COc1ccc(-c2c[nH]c(C3COc4ccc(Oc5ccnc6c5CCC(=O)N6)cc4C3)n2)cc1` (stereo not shown) [Compound 10, 5-[3-[4-(4-methoxyphenyl)-1H-imidazol-2-yl]chroman-6-yl]oxy-3,4-dihydro-1H-1,8-naphthyridin-2-one], for which the intrinsic metabolic clearance (microsomal CLint) at 1 μM in series [1] amounted to 89.1 µL/min/mg; in series [3] it was 45.9 µL/min/mg. The “mPPB (% free)” value in series [2] is 0.7 % free. Besides, in series [4], the “hPPB (% free)” value stood at 0.6 % free. The IC50 is 282 nM in series [5] and 832 nM in series [6]. Moreover, the Sol in series [7] is listed as <1.2 mg/L.
For `O=C1CCc2c(Oc3ccc4c(c3)CC(c3nc(-c5ccc(Cl)cc5)c[nH]3)CO4)ccnc2N1` (stereo not shown) [Compound 11, 5-[3-[4-(4-chlorophenyl)-1H-imidazol-2-yl]chroman-6-yl]oxy-3,4-dihydro-1H-1,8-naphthyridin-2-one], the microsomal CLint at 1 μM in series [1] worked out at 10.3 µL/min/mg; in series [3], 29.1 µL/min/mg. Moreover, the “mPPB (% free)” value in series [2] was found to be 0.1 % free. Moreover, the “hPPB (% free)” value in series [4] was 0.5 % free. Further, the figures for the IC50 in series [5] and in series [6] were 214 nM and 257 nM, respectively. In addition, the Sol in series [7] was <1.2 mg/L.
Take `COc1cccc(-c2c[nH]c(C3COc4ccc(Oc5ccnc6c5CCC(=O)N6)cc4C3)n2)c1` (stereo not shown) [Compound 13, 5-[3-[4-(3-methoxyphenyl)-1H-imidazol-2-yl]chroman-6-yl]oxy-3,4-dihydro-1H-1,8-naphthyridin-2-one]: the intrinsic clearance (microsomal CLint) at 1 μM in series [1] was determined as 77.1 µL/min/mg; in series [3] it was 114 µL/min/mg. Further, the “mPPB (% free)” value in series [2] is recorded as 1.2 % free. Also, the “hPPB (% free)” value in series [4] is 0.7 % free. In addition, the values for the IC50 in series [5] and in series [6] were 123 nM and 35.5 nM, respectively. In addition, in series [7], the Sol was <1.2 mg/L.
Take `Cc1cccc(-c2c[nH]c(C3COc4ccc(Oc5ccnc6c5CCC(=O)N6)cc4C3)n2)c1` (stereo not shown) [Compound 14, 5-[3-[4-(m-tolyl)-1H-imidazol-2-yl]chroman-6-yl]oxy-3,4-dihydro-1H-1,8-naphthyridin-2-one]: the results for the intrinsic metabolic clearance (microsomal CLint) at 1 μM in series [1] and in series [3] were 60.7 µL/min/mg and 51.3 µL/min/mg, respectively. Further, in series [2], the “mPPB (% free)” value came out at 0.5 % free. The “hPPB (% free)” value in series [4] is 0.1 % free. For the same molecule, the IC50 in series [5] was 75.9 nM; in series [6], 18.2 nM. For the same molecule, in series [7], the Sol was <1.1 mg/L.
